The subject of test [1] is cultured cells (e.g., fibroblasts and epithelial cells). Kind of test: Radiation protection of cultured cells (clonogenic survival, various cell types). It is filed as cell-based. To be noted: for radiation protection relative to DIM: cultured cells. From the text:
DIM, a metabolite of indole-3-carbinol and a proposed […], is a potent radiation protector in cultured cells and in rodents (mice and rats). The preparation of DIM that was used for most experiments was a microencapsulated form of DIM produced by BioResponse Nutrients (Boulder, Colo.). This microencapsulated form of DIM is designed with specific excipients (e.g., alpha-tocopherol succinate and phosphatidylcholine) to provide enhanced absorption and, therefore, enhanced bioavailability.
(§1) Following the indicated treatment(s), subconfluent proliferating cells were irradiated with different doses of ^137Cs γ-rays, harvested using trypsin, and plated at different densities in the absence or presence of DIM (as indicated) for colony formation (clonogenic survival) assays, as described in Zhang et al., Radiat Res, 161:667-674 (2004). Values of surviving fraction are means±SEMs of triplicate plates.
Novel compounds were synthesized, which we have tested for their ability to protect cells against radiation in cultured cells. […] None of these compounds are predicted to be free-radical scavengers or to be genotoxic. For reference, clonogenic radiation survival curves of cultured human mammary epithelial cells treated without or with DIM are shown in FIG. 6, panels A and B. In these studies, human mammary epithelial cells at about 70-80% of confluency were treated with DIM (0.3 μM) or vehicle ([…]) for 24 hours. The cells were then irradiated using different doses of ^137Cs gamma rays, harvested, plated at different densities in the presence of DIM (0.3 μM) or vehicle, respectively, incubated for 14 days, and then counted for colony formation. In FIG. 6, panels A and B, the clonogenic survival curves are shown using non-tumorigenic human mammary epithelial cell lines Hs5788st (panel B) or 184A1 (panel A). All cell survival values are means±SEMs of three replicate dishes.

Test [2] deals with non-homologous end joining. Kind of test: DNA strand rejoining assay (linearized plasmid pEGFP-1, nuclear lysates). The test is classed as cell-based, human. The following applies: 184A1 cells; inhibitor 10 μM. As to the method:
FIGS. 11A and 11B show subconfluent proliferating 184A1 (FIG. 11A) or Hs578Bst (FIG. 11B) cells pre-treated±DIM (0.3 μM×24 hr); exposed to radiation (3-Gy) on ice; and subjected to neutral comet assays at different times post-irradiation. Values of % tail DNA are means±ranges of two determinations. […] At 24-hr after irradiation, cells were analyzed by flow cytometry for apoptosis, by measuring membrane redistribution of phosphatidylserine. The percentage of early and late apoptotic cells for non-irradiated control cells were: vehicle treated, 1.25% and 1.34%, and DIM-treated, 0.54% and 1.02%, respectively.
After the indicated cell treatment(s), nuclear lysates were prepared and aliquots of lysate (50 or 75 μg of nuclear protein) were tested for their ability to rejoin a plasmid (pEGFP-1, Clontech) that had been linearized using restriction enzyme SmaI. The reaction products were detected by Southern blotting, which was performed with a digoxigenin-labeled enhanced green fluorescent protein RNA probe. The percent rejoined plasmids […] was determined by densitometric quantification of the bands corresponding to rejoined and unrejoined plasmid.
Since ATM is known to have a major role in the repair of radiation-induced double-strand breaks (DSBs) of DNA, it was tested whether DIM could stimulate the repair of DSBs. The neutral comet assay is an electrophoretic method to measure DNA damage that reflects DSBs. The percent of tail DNA after irradiation reflects the number of DSBs. […] A DNA strand-rejoining assay based on the ability of cell nuclei to rejoin a linearized plasmid (pEGFP-1) was also performed, detected by Southern blotting. This assay reflects the process of non-homologous end joining (NEHJ).

The next test has as its system ATM. The test can be described thus: Western blot of ATM signaling, 184A1 cells. To be noted: KU55933 10 μM. It is filed as cell-based, human. As for the experimental part: FIG. 7A contains Western blots of subconfluent proliferating 184A1 human mammary epithelial cells exposed to DIM (0.3 μM) for different time intervals. Phosphorylated or total levels of ATM and of several different ATM substrate proteins were determined, as indicated. As a negative control, cells were treated with a selective inhibitor of ATM kinase activity (KU55933). FIG. 7B contains Western blots of 184A1 cells either untreated or treated with radiation (2-Gy of γ-radiation) and/or DIM (0.3 μM).
FIG. 8 contains a Western blot of subconfluent proliferating 184A1 human mammary epithelial cells exposed to DIM (0.3 μM) for different time intervals. Phosphorylated or total levels of ATM and of different DNA damage-response proteins were determined, as indicated.
Western blotting was performed. The primary antibodies were as follows: rabbit polyclonal anti-BRCA1 (sc-642, Santa Cruz); mouse monoclonal α-actin (sc-1616, Santa Cruz); anti-phospho-BRCA1 (S1387) [AB3257, Millipore (Billerica, Mass.)]; mouse monoclonal anti-ATM (sc-73615, Santa Cruz,); anti-phospho-ATM (S1981); anti-CHK2 (05-649, mouse monoclonal, Millipore); anti-phosph-CHK2 (T68) (ab32055, rabbit monoclonal, Abcam, Cambridge, Mass.); anti-p53 (ab2433, rabbit polyclonal, Abcam), and rabbit polyclonal anti-phospho-p53 (S15) (ab38497, Abcam).
For orientation: A western blot detects proteins with antibodies after separation by electrophoresis.

Test [3] concerns Hs578Bst human mammary epithelial cells. Kind of test: Clonogenic survival after radiation, Hs578Bst cells. The test is classed as cell-based. To be noted: single dose of radiation (8-Gy); different concentrations.
Text: as §1
It was next tested whether DIM could protect cultured cells against radiation using clonogenic survival (colony formation) assays. Cells were exposed to DIM (0.3 μM) for 24-hr, irradiated, and harvested for colony formation assays. […]
Novel compounds were synthesized, which we have tested for their ability to protect cells against radiation in cultured cells. […] The cells were then irradiated using different doses of ^137Cs gamma rays, harvested, plated at different densities in the presence of DIM (0.3 μM) or vehicle, respectively, incubated for 14 days, and then counted for colony formation. […]
Cells at about 70-80% confluency were treated with vehicle (DMSO) or with the indicated compound (1 μM) for 24 hours, irradiated using different doses of ^137Cs gamma rays, harvested, plated at different densities in the presence of the compound (0.3 μM) or vehicle, respectively, incubated for 14 days, and then counted for colony formation. […]

`COc1ccc2c(c1)[nH]c1c(C)c(OS(=O)(=O)c3cccc4c(N(C)C)cccc34)ccc12` [KED-4-69]: in test [1], the “radiation protection relative to DIM” value is given as “strong levels of radiation protection similar to, slightly greater than, or slightly less than DIM”.
On to `O=c1cc(-c2cccc3c2Sc2ccccc2S3)oc(N2CCOCC2)c1` [KU55933], for which the “effect on DIM-induced strand-rejoining” value in test [2] is recorded as “blocked DIM-induced strand-rejoining”. Besides, the “effect on DIM-induced phosphorylations of ATM, BRCA1 and CHK2” value in the test on ATM is recorded as “blocked”.
On to `CCOC(=O)C(O)(c1c(C)n(C)c2ccccc12)C(F)(F)F` (stereo not drawn) [THW-5-85], for which the “potency of survival enhancement relative to DIM” value in test [3] is listed as “at least as potent as DIM”. Moreover, the “radiation protection relative to DIM” value in test [1] is recorded as “strong levels of radiation protection similar to, slightly greater than, or slightly less than DIM”.
Regarding `c1ccc2c(Cc3c[nH]c4ccccc34)c[nH]c2c1` [crystalline DIM, 3,3′-diindolylmethane], the “radioprotection of cultured cells” value in test [1] (ionizing radiation, clonogenic survival assays) was “work very well as radioprotectors”.

The values above are taken from US10266490B2, “Radioprotector compounds” (GEORGETOWN UNIVERSITY, priority 2012, dated 2019).
